Reference: US10435399B2, “HDAC6 inhibitory heterocyclic compound” (TAKEDA PHARMACEUTICAL COMPANY LIMITED, priority 2017, dated 2019)
One block for each compound: values may come before it.

Assays:
TK6 cells = assay: γH2AX assay using TK6 cells; assay type: cell-based, Human; conditions: 4 hr treatment, up to 100 μM
Procedure: γH2AX Assay Using TK6 Cells
Human lymphoblasts-derived TK6 cells were treated with the compounds of Examples 489, 512 or 519 at 0, 10, 30 or 100 μmol/L (final concentration) for 4 hr, and the presence or absence of DNA damage was evaluated by measuring phosphorylation of histone H2AX (γH2AX) as a marker. In addition, cytotoxicity after 24-hr treatment was also evaluated.
Exponentially growing TK6 cells were prepared at the cell density of 4×10^5 cells/mL in a culture medium, and was added to a 96-well plate by 100 μL/well. A test compound solution (2% DMSO) prepared using a culture solution, having twice the concentration on the above-mentioned final concentrations, was added thereto by 100 μL/well. This plate was incubated at 37° C., the cell suspension after 4 hr was sampled, and stained using In Vitro MultiFlow™ DNA Damage Kit (Litron), and H2AX phosphorylation level in each nucleus was measured using a flow cytometer and average value was calculated. The H2AX phosphorylation level in the concurrent vehicle control group was also measured and average value was calculated. The rate of change in the H2AX phosphorylation level in the treatment groups relative to that in the control group was calculated, and Dunnett test (significance level: two-tailed 1%) was performed. In addition, the cell suspension after 24 hr treatment was sampled, and the nucleus number was measured, and variation in the nucleus number in the treatment groups relative to that in the concurrent vehicle control group was used as an indicator of cytotoxicity. […] Therefore, the potential of the compounds for DNA strand breakage was judged to be negative under this test condition.

HDAC6 enzyme = biological target: T1, HDAC6 enzyme (Homo sapiens, UniProt Q9UBN7); assay: HDAC6 enzyme inhibitory activity (HDAC-Glo I/II Assay kit); assay type: biochemical; conditions: 10 μM; wells without enzyme = 100% inhibition; read-out: HDAC6 inhibitory rate (%) (10 μM)
T1 construct: transducing full length HDAC6 gene into Sf-9 insect cells; GST; purchased SignalChem; host or cells: Sf-9 insect cells
T1 sequence (Q9UBN7 1-1215): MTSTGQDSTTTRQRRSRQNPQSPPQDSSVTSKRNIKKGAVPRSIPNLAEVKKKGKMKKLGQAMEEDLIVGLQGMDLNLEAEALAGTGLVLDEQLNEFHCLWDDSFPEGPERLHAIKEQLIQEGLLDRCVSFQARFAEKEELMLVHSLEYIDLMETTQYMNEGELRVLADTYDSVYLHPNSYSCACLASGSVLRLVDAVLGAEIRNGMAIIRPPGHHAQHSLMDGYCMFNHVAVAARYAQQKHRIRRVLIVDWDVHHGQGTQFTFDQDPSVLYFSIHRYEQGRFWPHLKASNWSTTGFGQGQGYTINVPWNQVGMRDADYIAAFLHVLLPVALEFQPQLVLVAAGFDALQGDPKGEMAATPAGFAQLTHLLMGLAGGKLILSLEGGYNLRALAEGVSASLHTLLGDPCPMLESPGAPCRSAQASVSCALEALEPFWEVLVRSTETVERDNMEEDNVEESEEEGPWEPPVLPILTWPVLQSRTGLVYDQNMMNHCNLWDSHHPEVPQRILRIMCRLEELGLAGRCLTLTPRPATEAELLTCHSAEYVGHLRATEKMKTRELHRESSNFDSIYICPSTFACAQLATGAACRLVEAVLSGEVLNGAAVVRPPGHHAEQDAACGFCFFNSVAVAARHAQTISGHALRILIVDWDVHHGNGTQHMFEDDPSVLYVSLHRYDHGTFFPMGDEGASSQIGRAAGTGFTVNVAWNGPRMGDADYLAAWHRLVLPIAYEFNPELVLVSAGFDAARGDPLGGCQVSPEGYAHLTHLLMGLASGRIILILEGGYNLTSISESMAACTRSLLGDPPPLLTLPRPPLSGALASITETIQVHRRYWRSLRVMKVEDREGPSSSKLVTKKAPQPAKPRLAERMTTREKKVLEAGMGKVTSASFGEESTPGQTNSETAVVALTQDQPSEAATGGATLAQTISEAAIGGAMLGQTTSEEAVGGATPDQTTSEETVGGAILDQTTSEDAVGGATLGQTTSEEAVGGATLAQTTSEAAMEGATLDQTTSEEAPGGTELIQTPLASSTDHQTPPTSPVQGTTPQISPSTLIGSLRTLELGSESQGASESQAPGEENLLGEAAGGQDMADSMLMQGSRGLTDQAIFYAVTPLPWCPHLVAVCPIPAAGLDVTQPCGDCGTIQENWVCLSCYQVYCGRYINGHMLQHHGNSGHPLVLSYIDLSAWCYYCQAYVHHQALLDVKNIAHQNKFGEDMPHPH
Outline: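 Luminescent HDAC-Glo I/II readout after 20 min room-temperature reaction with substrate-developer, following 60 min compound–enzyme preincubation. Enzyme: full-length HDAC6 from Sf-9 cells, GST-purified; buffer 24 mM Tris-HCl pH 7.5, 0.01% Tween-20, glutathione, salts. Wells lacking enzyme define 100% inhibition.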

[1] = system: acetylated tubulin in brain (hippocampus); assay: Increase in acetylated tubulin in brain (hippocampus ELISA); assay type: in vivo, C57BL/6J mouse; conditions: mouse hippocampus, oral 3 mg/kg, 1 h after administration, vs vehicle
Procedure: Increase in Acetylated Tubulin in Brain
A drug was suspended in 0.5% methyl cellulose to prepare a suspension for administration, having a concentration shown in Table 3. The suspension was orally administered into 8 to […] male C57BL/6J mouse, and after the passage of the time shown in Table 3, the brain was taken out, and hippocampus was obtained. The hippocampus was homogenized under RIPA extract (Wako) to which protease inhibitor (Thermo) and phosphatase inhibitor (Thermo) were added, and centrifuged in 15,000 g for 15 min to prepare a protein extract. The acetylated tubulin and total tubulin in the extract were detected by the following ELISA method. Tubulin antibody (Sigma) was immobilized on 96-well plate (Microlite2+, Thermo), and the plate was stored at 4° C. […] The plate was washed, HRP substrate was added thereto, and the luminescence was measured using a plate reader. The acetylated tubulin and total tubulin were quantified from logistics curve based on dilution series using the mouse hippocampus tissue extract, and the acetylated tubulin relative to total tubulin was calculated, and evaluated as an relative tubulin acetylation level. […] After F test for vehicle group and drug group, the significant difference between the two groups was analyzed by Student t-test or Welch test (indicated as * p<0.05, ** p<0.01). […]

tauopathy mouse model = conditions: cited from earlier work
[2] = system: liver and glandular stomach cells; assay: Comet assay in rats (liver and glandular stomach); assay type: in vivo, rats (Crl:CD(SD)); conditions: 3 days, test article = compound of Example 489
Procedure: Combination Assay of Micronucleus Test and Comet Assay in Rats
The compound of Example 489 at doses of 1000 and 2000 mg/kg was orally administered to 8 to 9-week-old rats (Crl:CD(SD), five/group) once daily for 3 days, and micronucleus induction was evaluated in bone-marrow cells, and DNA damage was evaluated by DNA fragmentation of cell nucleus in the liver and glandular stomach.
Sample for comet assay was obtained from liver and glandular stomach by the following procedures. A part of left lateral lobe of liver was washed well with a cooled mincing buffer solution (Hanks' balanced salt solution containing 20 mmol/L EDTA and 10 vol % DMSO, pH7.5), and minced finely with dissecting scissors. This sample was kept on ice for 15 to 30 seconds, the precipitated large cell mass was removed, and the obtained cell suspension was kept on ice. Glandular stomach was added to a cooled mincing buffer solution, and kept on ice for 15 to 30 min. Then, the surface epithelium was removed by scraping gently twice, the stomach mucosa was washed well with a cooled mincing buffer solution, and the mucosa surface was taken out by scraping carefully four times or five times. This was kept on ice for 15 to 30 seconds, the precipitated large cell mass was removed, and the obtained cell suspension was kept on ice.
The liver and glandular stomach cell suspensions prepared by the above-mentioned procedures were added to 0.5 w/v % low-melting agarose so that the concentration became 10 vol % or less, 40 μL of the suspension was dropped to MAS-coated slide (Matsunami Glass Ind., Ltd.), and fixed to give a slide sample. The slide sample was immersed in a cooled cell lysate [an aqueous solution containing 2.5 mol/L sodium chloride, 100 mmol/L EDTA, 10 mmol/L tris(hydroxymethyl)aminomethane, 10 vol % DMSO and 1 vol % Triton X-100, pH 10.0], and kept overnight under light shielding in a refrigerator (2 to 8° C.).
The slide sample was washed with ultrapure water, set at random into an electrophoresis apparatus filled with an alkali buffer solution (an aqueous solution containing 0.3 mol/L sodium hydroxide and 1 mmol/L EDTA, pH >13) for electrophoresis. After confirming that the sample was completely immersed, the sample was left for 20 min to unwind the strands. Next, electrophorese was performed at a constant voltage of 0.7 to 1 V/cm (current is set about 0.30 A) for 20 min (the electrophoresis apparatus was kept on ice so that the alkali buffer solution for electrophoresis was kept at a constant temperature of 10° C. or below, during from the dissociation of the strands to electrophoresis). After electrophoresis, the slide sample was immersed in a neutralizing solution [0.4 mol/L aqueous tris(hydroxymethyl)aminomethane solution, pH 7.5] for 5 min or longer. Then, the slide sample was immersed in ethanol for 5 min or longer, and air-dried. […] The slide samples for negative control, test compound and positive control groups were encoded, and analyzed by the blind method. In each individual animal, 150 of suitable cells were selected for observation using a biological microscope with fluorescence attachment at 200-fold final magnification, and analyzed by image analysis software (Comet Assay IV, Perceptive Instruments Ltd.). The degree of the DNA damage was evaluated by % tail intensity calculated automatically from image analysis software. The median of the % tail intensity was calculated in each slide sample, and the average of the median was calculated in each individual. […]

bone-marrow cells = assay: Micronucleus test in rats (bone-marrow cells); assay type: in vivo, rats (Crl:CD(SD)); conditions: rat, in vivo, po
Procedure: Combination Assay of Micronucleus Test and Comet Assay in Rats […] Bone-marrow smear for micronucleus analysis was prepared as follows. Femur was cut at both ends, and washed with fetal bovine serum (FBS) in a centrifuging tube, and the obtained bone-marrow fluid was centrifuged for 5 min at room temperature. The supernatant was removed, and the cell sediment was suspended in the remaining small amount of the supernatant. A part of the suspension was dropped on a glass slide, and a cover glass was placed thereon to give a bone-marrow smear. The smear was dried well, and fixed with methanol for 5 min. The bone-marrow smear of negative control, that of treatment groups as well as the previously prepared bone-marrow smear of positive control group were encoded, and observed by the blind method. An acridine orange solution (40 μg/mL) was dropped (several drops) to the smear just before observation, and a cover glass was placed thereon. […] In addition, as an index of growth inhibitory effect on bone-marrow cell, total of 500 erythrocytes [immature erythrocytes+mature erythrocytes (ME)] per individual were observed, and immature erythrocyte rate (IE %) relative to the total number of erythrocytes was calculated.

potential for DNA strand breakage (judgement) (TK6 cells): negative
inhibition at 10 µM (HDAC6 enzyme): 99%
SMILES: CC(F)(F)C(=O)N[C@H]1[C@H](N2Cc3ccc(-c4nnc(C(F)F)o4)cc3C2=O)CCCC1(F)F [Example 512, N-((1S,6R)-6-(6-(5-(difluoromethyl)-1,3,4-oxadiazol-2-yl)-1-oxo-1,3-dihydro-2H-isoindol-2-yl)-2,2-difluorocyclohexyl)-2,2-difluoropropanamide]
histone H2AX phosphorylation (γH2AX) resulted from DNA strand breakage (TK6 cells): did not induce histone H2AX phosphorylation
relative tubulin acetylation level (acetylated tubulin relative to total tubulin) [1]: increase in significant tubulin acetylation level was observed

SMILES: CN1CCc2c(c3ccccc3n2Cc2ccc(C(=O)NO)cc2)C1 [Tubastatin A]
acetylation of tubulin (tauopathy mouse model): increases acetylation of tubulin
therapeutic effectiveness (tauopathy mouse model): shows therapeutic effectiveness

SMILES: CC[C@@]1(O)C(=O)OCc2c1cc1n(c2=O)Cc2cc3cc4c(cc3nc2-1)OCO4 [test article]
% tail DNA, mean ± SD ([2]; rat liver, 1000 mg/kg/day oral): 0.08 ± 0.03%
% tail DNA, mean ± SD ([2]; rat liver, 2000 mg/kg/day oral): 0.11 ± 0.04%
% tail DNA, mean ± SD ([2]; rat stomach, 1000 mg/kg/day oral): 0.59 ± 0.22%
% tail DNA, mean ± SD ([2]; rat stomach, 2000 mg/kg/day oral): 0.48 ± 0.21%
micronucleated immature erythrocytes incidences (MNIE %), mean ± SD (bone-marrow cells; 1000 mg/kg/day): 0.10 ± 0.04%
micronucleated immature erythrocytes incidences (MNIE %), mean ± SD (bone-marrow cells; 2000 mg/kg/day): 0.10 ± 0.03%
